This is an account of results in ChEMBL document CHEMBL5291721, “A preclinical secondary pharmacology resource illuminates target-adverse drug reaction associations of marketed drugs” (Nat Commun, 2023).

The target in experiment [1] is Sodium-dependent dopamine transporter (Homo sapiens, UniProt Q01959).
The target of experiment [2] is T1, Neuropeptide Y receptor type 1 (Homo sapiens, UniProt P25929).
T1 sequence (P25929 whole entry): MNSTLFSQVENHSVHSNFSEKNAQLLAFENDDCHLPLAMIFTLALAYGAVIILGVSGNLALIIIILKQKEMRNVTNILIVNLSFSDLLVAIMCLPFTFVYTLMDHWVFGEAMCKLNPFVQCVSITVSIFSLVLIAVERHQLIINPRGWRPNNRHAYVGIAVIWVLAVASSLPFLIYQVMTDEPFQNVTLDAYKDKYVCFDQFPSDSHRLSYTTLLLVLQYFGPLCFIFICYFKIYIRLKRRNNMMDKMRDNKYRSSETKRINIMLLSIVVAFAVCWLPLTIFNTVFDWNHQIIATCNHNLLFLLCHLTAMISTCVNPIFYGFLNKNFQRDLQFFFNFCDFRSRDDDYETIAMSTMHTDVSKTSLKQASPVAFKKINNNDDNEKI

Experiment [3] addresses T2, Alpha-2C adrenergic receptor (Homo sapiens, UniProt P18825).
T2 sequence (P18825 whole entry): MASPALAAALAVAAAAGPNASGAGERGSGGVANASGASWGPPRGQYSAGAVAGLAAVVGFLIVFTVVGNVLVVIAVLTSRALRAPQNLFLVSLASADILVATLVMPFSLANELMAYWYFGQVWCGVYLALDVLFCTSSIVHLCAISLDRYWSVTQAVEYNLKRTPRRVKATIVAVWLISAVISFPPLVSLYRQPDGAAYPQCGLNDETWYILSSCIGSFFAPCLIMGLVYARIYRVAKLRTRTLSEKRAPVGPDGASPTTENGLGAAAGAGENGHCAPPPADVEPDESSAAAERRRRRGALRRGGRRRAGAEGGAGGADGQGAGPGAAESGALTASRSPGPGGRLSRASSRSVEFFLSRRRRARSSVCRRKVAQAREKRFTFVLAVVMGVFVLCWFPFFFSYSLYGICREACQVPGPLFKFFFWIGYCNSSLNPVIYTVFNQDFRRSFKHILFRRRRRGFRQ
Format: functional.

Experiment [4] concerns the target Motilin receptor (Homo sapiens, UniProt O43193).
In experiment [5] the target is cGMP-inhibited 3',5'-cyclic phosphodiesterase 3A (Homo sapiens, UniProt Q14432). The experiment is classed as functional.
Experiment [6] concerns the target Cannabinoid receptor 1 (Homo sapiens, UniProt P21554). Format: functional, cell-based.
The target of experiment [7] is Muscarinic acetylcholine receptor M3 (Homo sapiens, UniProt P20309).
Chain of Muscarinic acetylcholine receptor M3 (P20309 whole entry): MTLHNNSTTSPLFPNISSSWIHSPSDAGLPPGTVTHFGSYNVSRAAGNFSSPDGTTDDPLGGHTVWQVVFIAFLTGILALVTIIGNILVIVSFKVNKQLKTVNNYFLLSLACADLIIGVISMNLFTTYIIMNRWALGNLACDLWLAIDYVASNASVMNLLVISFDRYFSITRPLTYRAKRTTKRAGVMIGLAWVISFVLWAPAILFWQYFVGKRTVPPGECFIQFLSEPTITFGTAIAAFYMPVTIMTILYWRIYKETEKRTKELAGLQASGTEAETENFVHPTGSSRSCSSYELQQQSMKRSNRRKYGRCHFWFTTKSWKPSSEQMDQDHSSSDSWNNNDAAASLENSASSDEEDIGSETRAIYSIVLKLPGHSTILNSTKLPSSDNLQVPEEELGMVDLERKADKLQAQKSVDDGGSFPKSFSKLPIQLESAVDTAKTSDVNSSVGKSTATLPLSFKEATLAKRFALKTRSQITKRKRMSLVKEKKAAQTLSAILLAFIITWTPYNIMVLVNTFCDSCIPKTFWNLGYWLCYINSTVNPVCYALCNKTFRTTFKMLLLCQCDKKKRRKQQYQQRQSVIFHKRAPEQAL
Experiment [8] concerns the target T3, Alpha-2A adrenergic receptor (Homo sapiens, UniProt P08913).
T3 sequence (P08913 whole entry): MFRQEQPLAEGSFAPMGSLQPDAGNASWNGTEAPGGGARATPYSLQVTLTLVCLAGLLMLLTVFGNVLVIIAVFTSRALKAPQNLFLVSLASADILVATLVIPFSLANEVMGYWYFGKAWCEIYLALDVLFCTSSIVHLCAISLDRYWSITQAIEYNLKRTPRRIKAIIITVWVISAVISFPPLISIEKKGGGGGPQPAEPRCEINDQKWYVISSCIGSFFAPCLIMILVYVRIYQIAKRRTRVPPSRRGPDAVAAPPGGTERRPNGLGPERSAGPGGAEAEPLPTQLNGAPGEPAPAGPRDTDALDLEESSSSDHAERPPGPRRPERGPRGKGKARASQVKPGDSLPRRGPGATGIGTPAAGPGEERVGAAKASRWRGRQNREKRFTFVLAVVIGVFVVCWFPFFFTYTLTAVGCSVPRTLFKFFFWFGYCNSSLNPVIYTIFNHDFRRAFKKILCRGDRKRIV
Format: functional, cell-based.

Experiment [9] addresses Vasopressin V2 receptor (Homo sapiens, UniProt P30518).
Experiment [10] concerns the target D(3) dopamine receptor (Homo sapiens, UniProt P35462).
Experiment [11] has as its target D(1A) dopamine receptor (Homo sapiens, UniProt P21728). Format: functional, cell-based.
For experiment [12], the target named is Sodium-dependent serotonin transporter (Homo sapiens, UniProt P31645).
Chain of Sodium-dependent serotonin transporter (P31645 whole entry): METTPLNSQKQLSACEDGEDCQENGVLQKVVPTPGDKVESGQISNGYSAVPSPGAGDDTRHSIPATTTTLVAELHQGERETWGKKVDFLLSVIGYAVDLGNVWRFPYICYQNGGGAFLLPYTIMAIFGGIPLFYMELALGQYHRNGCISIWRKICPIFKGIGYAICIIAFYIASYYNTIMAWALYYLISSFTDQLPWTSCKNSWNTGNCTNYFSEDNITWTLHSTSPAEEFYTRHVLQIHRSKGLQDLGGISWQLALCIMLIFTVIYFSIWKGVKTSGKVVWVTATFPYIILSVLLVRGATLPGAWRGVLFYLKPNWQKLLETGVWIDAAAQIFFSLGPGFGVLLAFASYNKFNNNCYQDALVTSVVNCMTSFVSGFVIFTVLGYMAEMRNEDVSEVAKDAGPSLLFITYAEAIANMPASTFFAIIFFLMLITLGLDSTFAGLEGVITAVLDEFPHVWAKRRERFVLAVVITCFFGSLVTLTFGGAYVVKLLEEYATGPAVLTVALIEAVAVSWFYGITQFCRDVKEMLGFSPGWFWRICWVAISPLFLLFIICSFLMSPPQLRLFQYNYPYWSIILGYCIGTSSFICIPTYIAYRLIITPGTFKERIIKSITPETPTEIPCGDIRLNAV
Experiment [13] deals with T4, Alpha-2B adrenergic receptor (Homo sapiens, UniProt P18089).
T4 sequence (P18089 whole entry): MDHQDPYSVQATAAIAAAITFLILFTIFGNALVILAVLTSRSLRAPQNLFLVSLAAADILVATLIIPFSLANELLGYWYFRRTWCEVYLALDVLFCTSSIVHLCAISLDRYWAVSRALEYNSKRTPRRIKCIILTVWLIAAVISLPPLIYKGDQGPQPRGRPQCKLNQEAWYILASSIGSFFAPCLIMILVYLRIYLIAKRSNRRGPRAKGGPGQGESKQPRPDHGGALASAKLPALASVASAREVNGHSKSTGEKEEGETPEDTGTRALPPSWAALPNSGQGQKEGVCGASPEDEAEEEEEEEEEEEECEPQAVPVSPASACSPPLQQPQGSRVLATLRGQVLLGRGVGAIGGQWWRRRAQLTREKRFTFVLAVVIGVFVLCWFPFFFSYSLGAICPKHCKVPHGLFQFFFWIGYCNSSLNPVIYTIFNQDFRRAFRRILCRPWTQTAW

In experiment [14] the target is 3',5'-cyclic-AMP phosphodiesterase 4D (Homo sapiens, UniProt Q08499). Format: functional.
The target of experiment [15] is Melanocortin receptor 3 (Homo sapiens, UniProt P41968).
Chain of Melanocortin receptor 3 (P41968 whole entry): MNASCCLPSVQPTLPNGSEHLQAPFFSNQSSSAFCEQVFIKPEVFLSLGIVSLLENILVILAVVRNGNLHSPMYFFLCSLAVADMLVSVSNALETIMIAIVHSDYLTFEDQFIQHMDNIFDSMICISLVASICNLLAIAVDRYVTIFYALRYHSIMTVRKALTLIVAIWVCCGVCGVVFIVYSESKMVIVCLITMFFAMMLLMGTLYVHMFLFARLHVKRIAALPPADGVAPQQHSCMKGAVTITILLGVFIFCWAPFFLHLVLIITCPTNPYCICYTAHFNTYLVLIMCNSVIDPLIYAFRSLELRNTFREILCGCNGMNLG
For experiment [16], the target named is Vasopressin V1a receptor (Homo sapiens, UniProt P37288).
Chain of Vasopressin V1a receptor (P37288 whole entry): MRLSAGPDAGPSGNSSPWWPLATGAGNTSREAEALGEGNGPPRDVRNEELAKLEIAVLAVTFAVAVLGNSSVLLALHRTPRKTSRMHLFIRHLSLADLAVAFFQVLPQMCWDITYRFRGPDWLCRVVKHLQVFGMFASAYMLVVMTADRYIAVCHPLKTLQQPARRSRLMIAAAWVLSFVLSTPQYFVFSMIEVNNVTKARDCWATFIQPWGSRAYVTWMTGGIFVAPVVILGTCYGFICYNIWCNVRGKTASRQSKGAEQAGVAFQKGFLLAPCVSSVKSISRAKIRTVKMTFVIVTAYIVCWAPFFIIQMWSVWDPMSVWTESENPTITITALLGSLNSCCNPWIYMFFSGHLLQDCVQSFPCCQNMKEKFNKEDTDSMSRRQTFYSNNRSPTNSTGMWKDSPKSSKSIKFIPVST
For experiment [17], the target named is T5, Adenosine receptor A3 (Homo sapiens, UniProt P0DMS8).
T5 sequence (P0DMS8 whole entry): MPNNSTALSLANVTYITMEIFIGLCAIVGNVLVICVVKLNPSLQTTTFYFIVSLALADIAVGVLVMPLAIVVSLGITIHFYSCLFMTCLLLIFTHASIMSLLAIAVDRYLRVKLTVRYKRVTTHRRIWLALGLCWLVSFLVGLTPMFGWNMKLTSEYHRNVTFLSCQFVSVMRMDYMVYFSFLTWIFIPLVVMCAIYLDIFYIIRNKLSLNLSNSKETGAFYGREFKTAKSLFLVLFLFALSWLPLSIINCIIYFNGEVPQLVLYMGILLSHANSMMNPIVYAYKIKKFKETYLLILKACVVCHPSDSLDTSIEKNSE

In experiment [18] the target is Voltage-gated inwardly rectifying potassium channel KCNH2 (Homo sapiens, UniProt Q12809). The experiment is classed as functional. As to conditions: read-out: AC50.
Chain of Voltage-gated inwardly rectifying potassium channel KCNH2 (Q12809 whole entry): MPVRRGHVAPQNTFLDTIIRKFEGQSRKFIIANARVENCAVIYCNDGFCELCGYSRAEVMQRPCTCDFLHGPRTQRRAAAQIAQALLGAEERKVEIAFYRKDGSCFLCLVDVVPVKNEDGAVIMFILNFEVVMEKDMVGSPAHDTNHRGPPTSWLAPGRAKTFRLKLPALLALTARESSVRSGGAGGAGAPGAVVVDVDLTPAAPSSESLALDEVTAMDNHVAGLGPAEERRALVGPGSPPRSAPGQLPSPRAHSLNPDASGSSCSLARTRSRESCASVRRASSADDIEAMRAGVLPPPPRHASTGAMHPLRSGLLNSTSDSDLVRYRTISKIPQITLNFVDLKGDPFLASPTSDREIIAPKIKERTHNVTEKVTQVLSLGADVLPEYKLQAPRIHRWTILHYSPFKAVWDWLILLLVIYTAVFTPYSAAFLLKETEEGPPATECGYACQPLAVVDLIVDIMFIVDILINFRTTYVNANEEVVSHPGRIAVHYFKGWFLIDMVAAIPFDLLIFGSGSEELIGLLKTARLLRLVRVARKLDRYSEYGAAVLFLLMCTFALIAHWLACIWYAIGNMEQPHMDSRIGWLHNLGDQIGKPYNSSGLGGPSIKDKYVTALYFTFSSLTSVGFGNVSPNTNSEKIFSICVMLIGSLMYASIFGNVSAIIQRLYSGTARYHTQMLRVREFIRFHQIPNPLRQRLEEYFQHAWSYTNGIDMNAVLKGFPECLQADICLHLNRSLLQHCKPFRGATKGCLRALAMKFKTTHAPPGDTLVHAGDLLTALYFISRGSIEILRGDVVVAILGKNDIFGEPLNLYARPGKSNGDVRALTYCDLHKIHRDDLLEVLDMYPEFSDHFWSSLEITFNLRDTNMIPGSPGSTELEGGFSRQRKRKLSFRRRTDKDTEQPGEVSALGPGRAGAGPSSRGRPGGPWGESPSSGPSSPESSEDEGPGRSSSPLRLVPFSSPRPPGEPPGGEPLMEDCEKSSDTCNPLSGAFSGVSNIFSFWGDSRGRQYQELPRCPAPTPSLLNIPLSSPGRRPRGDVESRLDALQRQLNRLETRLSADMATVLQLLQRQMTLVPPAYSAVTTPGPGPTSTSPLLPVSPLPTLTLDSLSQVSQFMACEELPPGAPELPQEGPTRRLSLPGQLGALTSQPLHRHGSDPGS
Also: assay procedure not described here.

Chain of Cannabinoid receptor 1 (P21554 whole entry): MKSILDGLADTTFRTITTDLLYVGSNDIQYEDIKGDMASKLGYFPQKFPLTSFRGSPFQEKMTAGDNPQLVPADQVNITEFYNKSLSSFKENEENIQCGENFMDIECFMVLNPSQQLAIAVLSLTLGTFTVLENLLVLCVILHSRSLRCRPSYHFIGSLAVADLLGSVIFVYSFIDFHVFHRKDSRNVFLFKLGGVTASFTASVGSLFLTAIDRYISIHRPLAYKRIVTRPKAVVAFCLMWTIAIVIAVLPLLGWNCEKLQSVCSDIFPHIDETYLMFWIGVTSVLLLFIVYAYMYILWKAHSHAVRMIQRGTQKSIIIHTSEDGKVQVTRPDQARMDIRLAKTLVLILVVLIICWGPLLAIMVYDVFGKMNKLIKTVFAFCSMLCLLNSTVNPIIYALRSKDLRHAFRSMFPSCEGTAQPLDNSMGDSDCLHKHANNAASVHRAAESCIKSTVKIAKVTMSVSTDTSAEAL
Chain of D(3) dopamine receptor (P35462 whole entry): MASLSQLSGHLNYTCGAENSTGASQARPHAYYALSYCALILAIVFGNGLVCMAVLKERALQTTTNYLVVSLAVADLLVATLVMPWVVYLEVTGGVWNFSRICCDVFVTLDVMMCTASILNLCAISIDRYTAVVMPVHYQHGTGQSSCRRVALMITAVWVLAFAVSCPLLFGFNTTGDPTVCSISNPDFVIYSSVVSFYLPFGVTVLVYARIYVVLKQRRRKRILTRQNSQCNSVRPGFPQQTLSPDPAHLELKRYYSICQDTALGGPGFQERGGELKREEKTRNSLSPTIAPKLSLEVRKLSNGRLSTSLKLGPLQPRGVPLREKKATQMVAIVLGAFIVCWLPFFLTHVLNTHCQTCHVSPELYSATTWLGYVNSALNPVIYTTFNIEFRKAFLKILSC
Chain of Vasopressin V2 receptor (P30518 whole entry): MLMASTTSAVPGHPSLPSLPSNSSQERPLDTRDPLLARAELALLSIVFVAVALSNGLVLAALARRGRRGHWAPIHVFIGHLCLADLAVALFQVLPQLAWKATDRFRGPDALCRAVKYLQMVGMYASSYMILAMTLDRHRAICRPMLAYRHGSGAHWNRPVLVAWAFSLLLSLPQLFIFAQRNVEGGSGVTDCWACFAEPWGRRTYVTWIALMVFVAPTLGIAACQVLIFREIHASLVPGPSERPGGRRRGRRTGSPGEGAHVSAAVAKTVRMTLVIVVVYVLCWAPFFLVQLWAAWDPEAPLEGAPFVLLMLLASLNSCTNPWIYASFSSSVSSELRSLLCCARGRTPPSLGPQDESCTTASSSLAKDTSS
Chain of Motilin receptor (O43193 whole entry): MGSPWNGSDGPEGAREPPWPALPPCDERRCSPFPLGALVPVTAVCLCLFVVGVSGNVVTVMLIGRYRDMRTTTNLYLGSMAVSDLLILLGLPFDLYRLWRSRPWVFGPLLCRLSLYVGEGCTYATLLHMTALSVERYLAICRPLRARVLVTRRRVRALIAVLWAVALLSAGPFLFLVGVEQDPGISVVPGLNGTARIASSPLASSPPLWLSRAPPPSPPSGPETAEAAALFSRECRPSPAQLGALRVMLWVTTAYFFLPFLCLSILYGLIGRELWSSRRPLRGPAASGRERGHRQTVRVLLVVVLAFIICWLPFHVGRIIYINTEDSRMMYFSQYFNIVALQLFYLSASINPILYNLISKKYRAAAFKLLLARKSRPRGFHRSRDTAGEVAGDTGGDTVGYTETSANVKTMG

For `CCN1CCN(C(=O)N[C@@H](C(=O)N[C@@H]2C(=O)N3C(C(=O)O)=C(CSc4nnnn4C)CS[C@H]23)c2ccc(O)cc2)C(=O)C1=O` [CEFOPERAZONE], the AC50 (in general, the concentration giving half of the maximal activity seen) in experiment [1] is greater than 30 µM; in experiment [2], greater than 30 µM; in experiment [3], greater than 30 µM; in [4], greater than 30 µM; in [5], 9.5 µM; in experiment [6], greater than 30 µM. Besides, the concentration at half-maximal activity (AC50) in experiment [7], in experiment [8], in [9], in experiment [10], in experiment [11] and in experiment [12] was greater than 30 µM each time. The AC50 in [13], in experiment [14], in experiment [15], in [16], in [17] and in experiment [18] was greater than 30 µM in each case.
In the case of `COc1ccc2c3c1O[C@H]1[C@@H](O)C=C[C@H]4[C@@H](C2)N(C)CC[C@@]341` [CODEINE], the AC50 in experiment [1] was greater than 30 µM; in experiment [2] it was greater than 30 µM; in experiment [3], greater than 10 µM; in experiment [4] it was greater than 10 µM; in experiment [5], 3 µM; in experiment [6], greater than 30 µM. Besides, the AC50 was greater than 30 µM in experiment [7]; greater than 10 µM in experiment [8]; greater than 30 µM in experiment [9]; greater than 10 µM in [10]; greater than 10 µM in experiment [11]; greater than 30 µM in [12]. The AC50 was greater than 10 µM in [13]; 7.2 µM in [14]; greater than 30 µM in [15]; greater than 30 µM in experiment [16]; greater than 30 µM in [17]; greater than 30 µM in experiment [18].
Turning to `CC(=O)OCC(=O)[C@@]12N=C(C)O[C@@H]1C[C@H]1[C@@H]3CCC4=CC(=O)C=C[C@]4(C)[C@H]3[C@@H](O)C[C@@]12C` [DEFLAZACORT], the AC50 in [1], in experiment [2], in experiment [3], in [4], in experiment [5] and in experiment [6] was greater than 30 µM in each case. Further, the AC50 in experiment [7], in [8], in experiment [9], in experiment [10], in [11] and in [12] was greater than 30 µM each time. Also, the AC50 in experiment [13], in [14], in [15], in experiment [16], in experiment [17] and in experiment [18] was greater than 30 µM each time.
For `CCCCc1ncc(/C=C(\Cc2cccs2)C(=O)O)n1Cc1ccc(C(=O)O)cc1` [EPROSARTAN], the concentration at half-maximal activity (AC50) is greater than 30 µM in [1]; greater than 10 µM in experiment [2]; greater than 10 µM in experiment [3]; greater than 10 µM in experiment [4]; greater than 10 µM in experiment [5]; greater than 30 µM in experiment [6]. Besides, the concentration at half-maximal activity (AC50) is greater than 10 µM in [7]; greater than 10 µM in experiment [8]; greater than 30 µM in experiment [9]; greater than 10 µM in [10]; greater than 30 µM in [11]; greater than 30 µM in [12]. Also, the AC50 in experiment [13] is greater than 10 µM; in experiment [14], greater than 10 µM; in [15] it was greater than 10 µM; in experiment [16], greater than 30 µM; in [17], greater than 10 µM; in experiment [18], greater than 30 µM.
For the compound `CCCCCCOc1ccccc1C(N)=O` [EXALAMIDE], the AC50 in experiment [1] was 14 µM; in experiment [2] it was greater than 30 µM; in experiment [3], greater than 30 µM; in experiment [4], greater than 30 µM; in experiment [5] it was greater than 30 µM; in [6], greater than 30 µM. The half-maximal activity concentration (AC50) in experiment [7], in experiment [8], in [9], in experiment [10], in experiment [11] and in experiment [12] was greater than 30 µM in each case. Besides, the concentration at half-maximal activity (AC50) in experiment [13], in experiment [14], in [15], in experiment [16], in experiment [17] and in experiment [18] was greater than 30 µM each time.
On to `COc1ccc(CCN(C)CCCC(C#N)(c2cc(OC)c(OC)c(OC)c2)C(C)C)cc1OC` (stereo unspecified) [GALLOPAMIL], for which the AC50 in experiment [1] is greater than 30 µM; in experiment [2], greater than 30 µM; in experiment [3], 7.6 µM; in experiment [4], greater than 30 µM; in [5] it was greater than 30 µM; in experiment [6], greater than 30 µM. Further, the AC50 in [7] is greater than 30 µM; in experiment [8], 25 µM; in [9] it was greater than 30 µM; in [10] it was 3.3 µM; in [11], greater than 30 µM; in experiment [12], 3 µM. Also, the AC50 in [13] is greater than 30 µM; in [14], 9.2 µM; in experiment [15] it was greater than 30 µM; in [16] it was greater than 30 µM; in experiment [17], greater than 30 µM; in experiment [18], 1.9 µM.
As to `CCC(C(=O)O)c1ccc(N2Cc3ccccc3C2=O)cc1` (stereo unspecified) [INDOBUFEN], the concentration at half-maximal activity (AC50) in experiment [1], in experiment [2], in experiment [3], in experiment [4], in experiment [5] and in experiment [6] was greater than 30 µM throughout. For the same compound, the concentration at half-maximal activity (AC50) in experiment [7], in experiment [8], in [9], in [10], in experiment [11] and in experiment [12] was greater than 30 µM throughout. For the same compound, the concentration at half-maximal activity (AC50) in [13], in experiment [14], in [15], in [16], in [17] and in experiment [18] was greater than 30 µM in each case.
